PubChem BioAssay AID2060897 (Molecular Pharmacology Branch, DTP, NCI, 2025)

System: 966289-007-R4-J1-PDC complex spheroid viability
Assay: Anticancer human tumor 966289-007-R4-J1-PDC patient-derived pancreatic adenocarcinoma cell line growth inhibition [RAS]
Conditions: for IC50: curve of first compound; for viability, T/C: stronger effect = lower value
In short: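 Tumour cells grown as complex spheroids with HUVEC endothelial cells and mesenchymal stem cells, treated with RAS pathway inhibitor combinations. Each agent spans half-log steps from near clinical Cmax, or 10 microM where Cmax is unknown.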
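Also: spheroids exposed to agents for one week before readout.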
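For viability, T/C in this document: percent viability relative to DMSO vehicle control wells as 100%.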

## CCc1c2c(nc3ccc(O)cc13)-c1cc3c(c(=O)n1C2)COC(=O)[C@]3(O)CC + C#Cc1c(F)ccc2cc(O)cc(-c3ncc4c(N5CC6CCC(C5)N6)nc(OCC56CCCN5CC(F)C6)nc4c3F)c12
Second compound 0.0316 µM
  IC50: 1.59 nM
Second compound 0.1 µM
  IC50: 1.5 nM
Second compound 0.316 µM
  IC50: 1.43 nM
Second compound 1 µM
  IC50: 1.44 nM
Second compound 3.16 µM
  IC50: 1.51 nM
Second compound 10 µM
  IC50: 1.4 nM
Second compound 0.0316 µM, first compound 0.000949 µM
  viability, T/C: 88.6%
Second compound 0.0316 µM, first compound 0.003 µM
  viability, T/C: 2.5%
Second compound 0.0316 µM, first compound 0.00949 µM
  viability, T/C: 1.27%
Second compound 0.0316 µM, first compound 0.03 µM
  viability, T/C: 0.94%
Second compound 0.0316 µM, first compound 0.0949 µM
  viability, T/C: 1.06%
Second compound 0.0316 µM, first compound 0.3 µM
  viability, T/C: 1.14%
Second compound 0.1 µM, first compound 0.000949 µM
  viability, T/C: 81.8%
Second compound 0.1 µM, first compound 0.003 µM
  viability, T/C: 2.09%
Second compound 0.1 µM, first compound 0.00949 µM
  viability, T/C: 0.95%
Second compound 0.1 µM, first compound 0.03 µM
  viability, T/C: 1.18%
Second compound 0.1 µM, first compound 0.0949 µM
  viability, T/C: 0.87%
Second compound 0.1 µM, first compound 0.3 µM
  viability, T/C: 1.15%
Second compound 0.316 µM, first compound 0.000949 µM
  viability, T/C: 76.5%
Second compound 0.316 µM, first compound 0.003 µM
  viability, T/C: 2.19%
Second compound 0.316 µM, first compound 0.00949 µM
  viability, T/C: 1.22%
Second compound 0.316 µM, first compound 0.03 µM
  viability, T/C: 1.04%
Second compound 0.316 µM, first compound 0.0949 µM
  viability, T/C: 0.89%
Second compound 0.316 µM, first compound 0.3 µM
  viability, T/C: 1.23%
Second compound 1 µM, first compound 0.000949 µM
  viability, T/C: 77.1%
Second compound 1 µM, first compound 0.003 µM
  viability, T/C: 1.99%
Second compound 1 µM, first compound 0.00949 µM
  viability, T/C: 1.31%
Second compound 1 µM, first compound 0.03 µM
  viability, T/C: 1.22%
Second compound 1 µM, first compound 0.0949 µM
  viability, T/C: 1.16%
Second compound 1 µM, first compound 0.3 µM
  viability, T/C: 1.16%
Second compound 3.16 µM, first compound 0.000949 µM
  viability, T/C: 82.2%
Second compound 3.16 µM, first compound 0.003 µM
  viability, T/C: 2.82%
Second compound 3.16 µM, first compound 0.00949 µM
  viability, T/C: 1.66%
Second compound 3.16 µM, first compound 0.03 µM
  viability, T/C: 1.34%
Second compound 3.16 µM, first compound 0.0949 µM
  viability, T/C: 1.54%
Second compound 3.16 µM, first compound 0.3 µM
  viability, T/C: 1.55%
Second compound 10 µM, first compound 0.000949 µM
  viability, T/C: 75.1%
Second compound 10 µM, first compound 0.003 µM
  viability, T/C: 1.37%
Second compound 10 µM, first compound 0.00949 µM
  viability, T/C: 1.04%
Second compound 10 µM, first compound 0.03 µM
  viability, T/C: 0.91%
Second compound 10 µM, first compound 0.0949 µM
  viability, T/C: 0.84%
Second compound 10 µM, first compound 0.3 µM
  viability, T/C: 0.55%

## CC(=O)OC12COC1CC(O)C1(C)C(=O)C(O)C3=C(C)C(OC(=O)C(O)C(NC(=O)OC(C)(C)C)c4ccccc4)CC(O)(C(OC(=O)c4ccccc4)C21)C3(C)C (stereo unspecified) + CCn1c(-c2cccnc2C(C)OC)c2c3cc(ccc31)N1CCOC(CC(NC(=O)C(C(C)C)N(C)C(=O)C3(F)CCN(C(=O)C#CC(C)(C)N(C)C)CC3)C(=O)N3CCCC(N3)C(=O)OCC(C)(C)C2)C1
Second compound 0.000949 µM
  IC50: < 31.6 nM
Second compound 0.003 µM
  IC50: < 31.6 nM
Second compound 0.00949 µM
  IC50: < 31.6 nM
Second compound 0.03 µM
  IC50: < 31.6 nM
Second compound 0.0949 µM
  IC50: < 31.6 nM
Second compound 0.3 µM
  IC50: < 31.6 nM
Second compound 0.000949 µM, first compound 0.0316 µM
  viability, T/C: 5.96%
Second compound 0.000949 µM, first compound 0.1 µM
  viability, T/C: 11.7%
Second compound 0.000949 µM, first compound 0.316 µM
  viability, T/C: 9.08%
Second compound 0.000949 µM, first compound 1 µM
  viability, T/C: 14.2%
Second compound 0.000949 µM, first compound 3.16 µM
  viability, T/C: 38%
Second compound 0.000949 µM, first compound 10 µM
  viability, T/C: 61.4%
Second compound 0.003 µM, first compound 0.0316 µM
  viability, T/C: 5.16%
Second compound 0.003 µM, first compound 0.1 µM
  viability, T/C: 12.8%
Second compound 0.003 µM, first compound 0.316 µM
  viability, T/C: 11%
Second compound 0.003 µM, first compound 1 µM
  viability, T/C: 16.3%
Second compound 0.003 µM, first compound 3.16 µM
  viability, T/C: 32.3%
Second compound 0.003 µM, first compound 10 µM
  viability, T/C: 52%
Second compound 0.00949 µM, first compound 0.0316 µM
  viability, T/C: 4.31%
Second compound 0.00949 µM, first compound 0.1 µM
  viability, T/C: 11.3%
Second compound 0.00949 µM, first compound 0.316 µM
  viability, T/C: 10.9%
Second compound 0.00949 µM, first compound 1 µM
  viability, T/C: 16.3%
Second compound 0.00949 µM, first compound 3.16 µM
  viability, T/C: 25.2%
Second compound 0.00949 µM, first compound 10 µM
  viability, T/C: 59.7%
Second compound 0.03 µM, first compound 0.0316 µM
  viability, T/C: 2.88%
Second compound 0.03 µM, first compound 0.1 µM
  viability, T/C: 3.54%
Second compound 0.03 µM, first compound 0.316 µM
  viability, T/C: 8.87%
Second compound 0.03 µM, first compound 1 µM
  viability, T/C: 10.5%
Second compound 0.03 µM, first compound 3.16 µM
  viability, T/C: 20.4%
Second compound 0.03 µM, first compound 10 µM
  viability, T/C: 49.5%
Second compound 0.0949 µM, first compound 0.0316 µM
  viability, T/C: 2.26%
Second compound 0.0949 µM, first compound 0.1 µM
  viability, T/C: 4.26%
Second compound 0.0949 µM, first compound 0.316 µM
  viability, T/C: 3.62%
Second compound 0.0949 µM, first compound 1 µM
  viability, T/C: 4.99%
Second compound 0.0949 µM, first compound 3.16 µM
  viability, T/C: 16.5%
Second compound 0.0949 µM, first compound 10 µM
  viability, T/C: 26.8%
Second compound 0.3 µM, first compound 0.0316 µM
  viability, T/C: 1.97%
Second compound 0.3 µM, first compound 0.1 µM
  viability, T/C: 3.21%
Second compound 0.3 µM, first compound 0.316 µM
  viability, T/C: 4.05%
Second compound 0.3 µM, first compound 1 µM
  viability, T/C: 4.51%
Second compound 0.3 µM, first compound 3.16 µM
  viability, T/C: 7.84%
Second compound 0.3 µM, first compound 10 µM
  viability, T/C: 9.46%

## CC(C)NCC(C(=O)N1CCN(c2ncnc3c2C(C)CC3O)CC1)c1ccc(Cl)cc1 (stereo unspecified) + C#Cc1c(F)ccc2cc(O)cc(-c3ncc4c(N5CC6CCC(C5)N6)nc(OCC56CCCN5CC(F)C6)nc4c3F)c12
Second compound 0.0316 µM
  IC50: 6400 nM
Second compound 0.1 µM
  IC50: 6040 nM
Second compound 0.316 µM
  IC50: 5610 nM
Second compound 1 µM
  IC50: 6950 nM
Second compound 3.16 µM
  IC50: 5640 nM
Second compound 10 µM
  IC50: 2760 nM
Second compound 0.0316 µM, first compound 0.0316 µM
  viability, T/C: 98.7%
Second compound 0.0316 µM, first compound 0.1 µM
  viability, T/C: 111%
Second compound 0.0316 µM, first compound 0.316 µM
  viability, T/C: 108%
Second compound 0.0316 µM, first compound 1 µM
  viability, T/C: 111%
Second compound 0.0316 µM, first compound 3.16 µM
  viability, T/C: 66.9%
Second compound 0.0316 µM, first compound 10 µM
  viability, T/C: 39.3%
Second compound 0.1 µM, first compound 0.0316 µM
  viability, T/C: 103%
Second compound 0.1 µM, first compound 0.1 µM
  viability, T/C: 109%
Second compound 0.1 µM, first compound 0.316 µM
  viability, T/C: 124%
Second compound 0.1 µM, first compound 1 µM
  viability, T/C: 101%
Second compound 0.1 µM, first compound 3.16 µM
  viability, T/C: 66.4%
Second compound 0.1 µM, first compound 10 µM
  viability, T/C: 37.4%
Second compound 0.316 µM, first compound 0.0316 µM
  viability, T/C: 106%
Second compound 0.316 µM, first compound 0.1 µM
  viability, T/C: 103%
Second compound 0.316 µM, first compound 0.316 µM
  viability, T/C: 128%
Second compound 0.316 µM, first compound 1 µM
  viability, T/C: 102%
Second compound 0.316 µM, first compound 3.16 µM
  viability, T/C: 66.6%
Second compound 0.316 µM, first compound 10 µM
  viability, T/C: 33.6%
Second compound 1 µM, first compound 0.0316 µM
  viability, T/C: 104%
Second compound 1 µM, first compound 0.1 µM
  viability, T/C: 106%
Second compound 1 µM, first compound 0.316 µM
  viability, T/C: 111%
Second compound 1 µM, first compound 1 µM
  viability, T/C: 117%
Second compound 1 µM, first compound 3.16 µM
  viability, T/C: 74.6%
Second compound 1 µM, first compound 10 µM
  viability, T/C: 38.6%
Second compound 3.16 µM, first compound 0.0316 µM
  viability, T/C: 116%
Second compound 3.16 µM, first compound 0.1 µM
  viability, T/C: 106%
Second compound 3.16 µM, first compound 0.316 µM
  viability, T/C: 114%
Second compound 3.16 µM, first compound 1 µM
  viability, T/C: 96.7%
Second compound 3.16 µM, first compound 3.16 µM
  viability, T/C: 67.5%
Second compound 3.16 µM, first compound 10 µM
  viability, T/C: 33%
Second compound 10 µM, first compound 0.0316 µM
  viability, T/C: 110%
Second compound 10 µM, first compound 0.1 µM
  viability, T/C: 111%
Second compound 10 µM, first compound 0.316 µM
  viability, T/C: 125%
Second compound 10 µM, first compound 1 µM
  viability, T/C: 103%
Second compound 10 µM, first compound 3.16 µM
  viability, T/C: 43%
Second compound 10 µM, first compound 10 µM
  viability, T/C: 26.1%
